{"source": "patent EP2545917B1", "about": "“NOVEL EP4 AGONIST” (Kaken Pharmaceutical Co., Ltd., priority 2010, dated 2011)", "key": {"[1]": {"system": "blood pressure and heart rate", "assay": "Effect on blood pressure and heart rate in mice", "type": "in vivo, ICR mice", "details": "intravenous 0.01 mg/5 mL/kg, isoflurane anesthesia", "experimental": "Male ICR mice (5 weeks old, Japan SLC) were purchased, acclimated for 6 days and used for the test. The animals were treated and measured under isoflurane inhalation anesthesia (anesthesia introduced at 2.5%, maintained at 1.8-2.1%), while body temperature was kept at 37°C with a Heat Controller (ATC-402, Unique Medical Co., Ltd.). A catheter for administration of test compounds was inserted into the left femoral vein, and another catheter was inserted into the right femoral artery and connected to a pressure transducer to record each parameter of hemodynamics.\nCompound F, the carboxylate form of compound F and BPS were intravenously administered at a dose of 0.01 mg/5 mL/kg, and the effect on the mean blood pressure and heart rate was evaluated with computer software for the analysis of hemodynamics (Fluclet, Dainippon Sumitomo Pharma Co., Ltd.). To the control group was intravenously administered a solvent (1.2% ethanol solution) at 5 mL/kg in the same manner. The results are expressed as a ratio of change in each parameter before and after the drug administration. Three to 6 animals were used for each group, and the results were expressed as average ± standard deviation."}, "[2]": {"system": "dextran sodium sulfate-induced colitis", "assay": "Therapeutic effect on remission/relapse model of dextran sodium sulfate-induced colitis in mice", "type": "in vivo, BALB/c mice", "description": "Next, therapeutic effect of compound F on colitis was studied in a chronic model. Female BALB/c mice, 6 weeks old, body weight about 20 g (Japan SLC) were purchased, acclimated for 1 week and used for the study. The mice were divided into a colitis induction group and a normal group. The colitis induction group was allowed to freely drink a 2.6 w/v% DSS (MP Biochemicals, M.W. 36,000- 50,000, Lot No. 4556J) solution to induce colitis. On day 8 when the stool score (defined in Example 23) of the colitis induction group reached about 4.5, the mice were subdivided into a control group, a compound F 1 mg/kg administration group and a salazosulfapyridine (SIGMA, Lot No. 085K1930, hereinafter to be abbreviated as SASP) 100 mg/kg administration group. Then the mice were allowed to freely drink distilled water instead of DSS solution for 9 days (remission period). After the grouping, the stool score was evaluated every 3 - 4 days. When the score of the control group reached about 1, the mice were again allowed to drink the DSS solution to cause a relapse (relapse period). The periods of remission and relapse were taken as 1 cycle and the cycle was repeated 5 times. As for the 5th cycle, however, only the remission period was performed.\nCompound F at a dose of 1 mg/kg and SASP at a dose of 100 mg/kg were orally administered once a day, daily, for 50 days from the initial remission period (day 8 from the start of 2.6 w/v% DSS drinking) to the fifth remission period (day 57 from the start of 2.6 w/v% DSS drinking). To the control group was orally administered a solvent (1 vol% ethanol solution) at 10 mL/kg. If a mouse had score 0 of both stool consistency score and occult blood score on the last day of each remission period, the mouse was regarded as \"in remission\". The remission ratio (%) was calculated as a ratio of mice in remission in each group. Eight to 10 mice were used for each group and the results are shown in average value."}, "eye": {"system": "eye", "assay": "Local irritative effect on the eye in rabbits", "type": "in vivo, Japanese white rabbits", "details": "single instillation, left eye", "experimental": "Japanese white rabbits (male, 10 weeks old, BIOTEC Co., Ltd.) were purchased, acclimated for 1 week and used for the study. Compound F solution (0.01 w/v%) was instilled once into the cornea of both eyes at a volume of 50 µL/eye with a micropipette. The intraocular pressure of the right eye was measured and the local irritative effect on the eye was evaluated using the left eye. After surface anesthesia with oxybupranol (Benoxil 0.4% instillation solution), the intraocular pressure was measured before ocular instillation ) and 1, 2, 3, 4, 6 and 8 hr after the instillation using a pneumatonometer (Alcon Ltd.). In addition, the local irritative effect on the eye was evaluated by scoring conjunctival congestion, conjunctival edema, cornea opacity, iris congestion, excretion and eye closure performance. For the evaluation, phosphate buffer was used for the solvent control group, and isopropyl unoprostone (Rescula eye drops, Santen Pharmaceutical Co., Ltd.) was used for comparison. Six animals were used for each group and the results were expressed as average."}, "[3]": {"details": "mice, oral once a day, Compound F 1 mg/kg, SASP 100 mg/kg"}}}
{"compound": "Cc1cccc([C@@H](C)[C@H](O)/C=C/[C@@H]2[C@@H]3[C@H](C[C@H]2O)O/C(=C\\CCCc2nnn[nH]2)C3(F)F)c1", "note": "[Compound F, 4-[(Z)-(1S,5R,6R,7R)-6-[(1E,3R,4R)-3-hydroxy-4-(m-tolyl)-1-pentenyl]-7-hydroxy-2-oxa-4,4-difluoro-bicyclo[3.3.0]octan-3-ylidene]-1-(tetrazol-5-yl)butane]", "values": [{"measurement": "effect on heart rate", "setting": "[1]", "value": "little effect on the heart rate"}, {"measurement": "maximum decrease ratio of mean blood pressure", "setting": "[1]", "value": 16.2, "unit": "%"}, {"measurement": "Remission Ratio Average", "setting": "[2]; average of 5 remission periods, Compound F 1 mg/kg, SASP 100 mg/kg", "value": 66.0, "unit": "%"}, {"measurement": "remission ratio in any remission period", "setting": "[2]; mice, oral 1 mg/kg once a day", "value": "not less than 60%"}, {"measurement": "effect on stool score in remission and relapse periods", "setting": "[2]; mice, oral once a day for 50 days, compound F 1 mg/kg, SASP 100 mg/kg", "value": "decreased the stool score early in the remission period, and suppressed an increase in the score in the relapse period"}, {"measurement": "Remission Ratio Cycle 1", "setting": "[2]; [3]", "value": 60.0, "unit": "%"}, {"measurement": "Remission Ratio Cycle 2", "setting": "[2]; [3]", "value": 80.0, "unit": "%"}, {"measurement": "Remission Ratio Cycle 3", "setting": "[2]; [3]", "value": 70.0, "unit": "%"}, {"measurement": "Remission Ratio Cycle 4", "setting": "[2]; [3]", "value": 60.0, "unit": "%"}, {"measurement": "Remission Ratio Cycle 5", "setting": "[2]; [3]", "value": 60.0, "unit": "%"}, {"measurement": "local irritant effect on the eye", "setting": "eye", "value": "conjunctival edema and eye closure were observed 1 hr after the instillation in some animals"}]}
